# Data taken from patent US20240197726A1, “NOVEL TETRAHYDROISOQUINOLINE ALKALOID COMPOUND CONTAINING MACROCYCLE” (THE UNIVERSITY OF TOKYO, priority 2021, published 2024).
# Read-outs that look alike come from different tables or passages of the source.
# Experiments:
# Assay type in all cases: cell-based
# [1] = system: HBC-5 breast cancer cells; experiment: antitumor activity, sulforhodamine B cell growth assay, HBC-5
# Procedure: (§1) The THIQ compound containing a macrocyclic structure of the present invention was administered to various cancer cell lines, and the antitumor activity (Go value) was observed. Specifically, verification was performed according to the literature (Yamori, T.; Matsunaga, A.; Sato, S.; Yamazaki, K.; Komi, A.; Ishizu, K. et al. Cancer Res. 1999, 59, 4042) by the following procedure.
# (§2) Cells were plated at an appropriate density in a 96-well plate in RPMI 1640 together with 5% fetal bovine serum, and adhered overnight. The cells were exposed to a drug for 48 hours. Then, according to the sulforhodamine B assay described by Skehan et al (Skehan P., Storeng R., Scudiero D., Monks A., McMahon J., Vistica D., Warren J. T., Bokesch H., Kenney S., Boyd M. R. J Natl. Cancer Inst, 1990, 82, 1107-1112), the cell growth rate was measured. The absorbance of the control well (C) and the test well (T) was measured at 525 nm. In addition, the time at which the drug was added was set as time 0, and the absorbance for the test well (T0) was measured. Using these measured values, the cell growth inhibitory effect (% growth=PG) was calculated by the following formula at each concentration of the drug.
# (§3) (T<T0): PG=100×[(T−T0)/T]
# (§4) The PG values determined above for each cell line were plotted against the concentration (logarithm) on a semi-logarithmic graph, and summarized for each visceral cancer. Concentrations at which the dose-response curve of each cell line crossed the horizontal line of PG=50%, 0%, or −50% were calculated. These concentrations were defined as Log GI50, Log TGI, and Log LC50. Actually, using two data points of the drug concentration before and after crossing each horizontal line, the drug concentration (logarithmic value) at the intersection of the straight line connecting the two points and the horizontal line for each PG was calculated.
# [2] = system: MCF-7 breast cancer cells; experiment: antitumor activity, sulforhodamine B cell growth assay, MCF-7
# Procedure: as §1, §2, §3, §4
# [3] = system: SF-539 central nervous system cancer cells; experiment: antitumor activity, sulforhodamine B cell growth assay, SF-539
# Procedure: as §1, §2, §3, §4
# [4] = system: SNB-75 central nervous system cancer cells; experiment: antitumor activity, sulforhodamine B cell growth assay, SNB-75
# Procedure: as §1, §2, §3, §4
# [5] = system: SNB-78 central nervous system cancer cells; experiment: antitumor activity, sulforhodamine B cell growth assay, SNB-78
# Procedure: as §1, §2, §3, §4
# [6] = system: HCC2998 colorectal cancer cells; experiment: antitumor activity, sulforhodamine B cell growth assay, HCC2998
# Procedure: as §1, §2, §3, §4
# [7] = system: HT-29 colorectal cancer cells; experiment: antitumor activity, sulforhodamine B cell growth assay, HT-29
# Procedure: as §1, §2, §3, §4
# [8] = system: HCT-116 colorectal cancer cells; experiment: antitumor activity, sulforhodamine B cell growth assay, HCT-116
# Procedure: as §1, §2, §3, §4
# [9] = system: NCI-H226 lung cancer cells; experiment: antitumor activity, sulforhodamine B cell growth assay, NCI-H226
# Procedure: as §1, §2, §3, §4
# [10] = system: NCI-H460 lung cancer cells; experiment: antitumor activity, sulforhodamine B cell growth assay, NCI-H460
# Procedure: as §1, §2, §3, §4
# [11] = system: LOX-IMVI melanoma cells; experiment: antitumor activity, sulforhodamine B cell growth assay, LOX-IMVI
# Procedure: as §1, §2, §3, §4
# [12] = system: SK-OV-3 cancer cells; experiment: antitumor activity, sulforhodamine B cell growth assay, SK-OV-3
# Procedure: as §1, §2, §3, §4
# [13] = system: RXF-631L kidney cancer cells; experiment: antitumor activity, sulforhodamine B cell growth assay, RXF-631L
# Procedure: as §1, §2, §3, §4
# [14] = system: ACHN kidney cancer cells; experiment: antitumor activity, sulforhodamine B cell growth assay, ACHN
# Procedure: as §1, §2, §3, §4
# [15] = system: St-4 gastric cancer cells; experiment: antitumor activity, sulforhodamine B cell growth assay, St-4
# Procedure: as §1, §2, §3, §4
# [16] = system: MKN1 gastric cancer cells; experiment: antitumor activity, sulforhodamine B cell growth assay, MKN1
# Procedure: as §1, §2, §3, §4
# [17] = system: MKN-A gastric cancer cells; experiment: antitumor activity, sulforhodamine B cell growth assay, MKN-A
# Procedure: as §1, §2, §3, §4
# [18] = system: various cancer cell lines; experiment: Verification of antitumor activity, whole panel of cancer cell lines; settings: in words, compared with Cyanosafracin B
# Procedure: as §1, §2, §3, §4
# [19] = RXF-631L, drug exposure 48 hours, read-out: GI50 value: 50% growth inhibitory concentration
# [20] = St-4 (SI-4 in Tables 2-11), drug exposure 48 hours, read-out: GI50 value: 50% growth inhibitory concentration
# [21] = MKN-A, drug exposure 48 hours, read-out: GI50 value: 50% growth inhibitory concentration
# [22] = HBC-5, drug exposure 48 hours, read-out: GI50 value: 50% growth inhibitory concentration
# [23] = MCF-7, drug exposure 48 hours, read-out: GI50 value: 50% growth inhibitory concentration
# [24] = SF-539, drug exposure 48 hours, read-out: GI50 value: 50% growth inhibitory concentration
# [25] = SNB-75, drug exposure 48 hours, read-out: GI50 value: 50% growth inhibitory concentration
# [26] = SNB-78, drug exposure 48 hours, read-out: GI50 value: 50% growth inhibitory concentration
# [27] = HCC2998, drug exposure 48 hours, read-out: GI50 value: 50% growth inhibitory concentration
# [28] = HT-29, drug exposure 48 hours, read-out: GI50 value: 50% growth inhibitory concentration
# [29] = HCT-116, drug exposure 48 hours, read-out: GI50 value: 50% growth inhibitory concentration
# [30] = NCI-H226, drug exposure 48 hours, read-out: GI50 value: 50% growth inhibitory concentration
# [31] = NCI-H460, drug exposure 48 hours, read-out: GI50 value: 50% growth inhibitory concentration
# [32] = LOX-IMVI, drug exposure 48 hours, read-out: GI50 value: 50% growth inhibitory concentration
# [33] = SK-OV-3, drug exposure 48 hours, read-out: GI50 value: 50% growth inhibitory concentration
# [34] = ACHN, drug exposure 48 hours, read-out: GI50 value: 50% growth inhibitory concentration
# [35] = MKN1, drug exposure 48 hours, read-out: GI50 value: 50% growth inhibitory concentration
Structure (SMILES),"GI50 [13, 19] [nM]","GI50 [15, 20] [nM]","GI50 [17, 21] [nM]",antitumor activity [18],"GI50 [1, 22] [nM]","GI50 [2, 23] [nM]","GI50 [3, 24] [nM]","GI50 [4, 25] [nM]","GI50 [5, 26] [nM]","GI50 [6, 27] [nM]","GI50 [7, 28] [nM]","GI50 [8, 29] [nM]","GI50 [9, 30] [nM]","GI50 [10, 31] [nM]","GI50 [11, 32] [nM]","GI50 [12, 33] [nM]","GI50 [14, 34] [nM]","GI50 [16, 35] [nM]",further results
COc1c(C)cc2c(c1O)[C@@H]1[C@@H]3Cc4c5c(C)c6c(c4C(CNC(=O)[C@H](C)NC(=O)OCC4C=C(CO5)Cn5c(=O)n(-c7ccccc7)c(=O)n54)N3[C@@H](C#N)[C@H](C2)N1C)OCO6 [Compound 16],35,37,29,better antitumor activity than Cyanosafracin B,,,,,,,,,,,,,,,"GI50 ([1]; HBC5, HBC-5, drug exposure 48 hours, read-out: GI50 value: 50% growth inhibitory concentration): 6.9 nM; GI50 ([2]; Homo sapiens, MCF7, MCF-7, drug exposure 48 hours, read-out: GI50 value: 50% growth inhibitory concentration): 4.4 nM; GI50 ([3]; Homo sapiens, SF-539, drug exposure 48 hours, read-out: GI50 value: 50% growth inhibitory concentration): 8.2 nM; GI50 ([4]; Homo sapiens, SNB-75, drug exposure 48 hours, read-out: GI50 value: 50% growth inhibitory concentration): 9.9 nM; GI50 ([5]; Homo sapiens, SNB-78, drug exposure 48 hours, read-out: GI50 value: 50% growth inhibitory concentration): 7.5 nM; GI50 ([6]; Homo sapiens, HCC 2998, HCC2998, drug exposure 48 hours, read-out: GI50 value: 50% growth inhibitory concentration): 17 nM; GI50 ([7]; Homo sapiens, HT-29, drug exposure 48 hours, read-out: GI50 value: 50% growth inhibitory concentration): 7.3 nM; GI50 ([8]; Homo sapiens, HCT-116, drug exposure 48 hours, read-out: GI50 value: 50% growth inhibitory concentration): 9.3 nM; GI50 ([9]; Homo sapiens, NCI-H226, drug exposure 48 hours, read-out: GI50 value: 50% growth inhibitory concentration): 25 nM; GI50 ([10]; Homo sapiens, NCI-H460, drug exposure 48 hours, read-out: GI50 value: 50% growth inhibitory concentration): 36 nM; GI50 ([11]; Homo sapiens, LOX-IMVI, drug exposure 48 hours, read-out: GI50 value: 50% growth inhibitory concentration): 3.3 nM; GI50 ([12]; Homo sapiens, SK-OV-3, drug exposure 48 hours, read-out: GI50 value: 50% growth inhibitory concentration): 34 nM; GI50 ([14]; Homo sapiens, ACHN, drug exposure 48 hours, read-out: GI50 value: 50% growth inhibitory concentration): 25 nM; GI50 ([16]; Homo sapiens, MKN-1, MKN1, drug exposure 48 hours, read-out: GI50 value: 50% growth inhibitory concentration): 4.8 nM"
COc1c(C)cc2c(c1O)C1C3Cc4c5c(C)c6c(c4C(CNC(=O)C(C)NCC=CCO5)N3C(C#N)C(C2)N1C)OCO6 (stereo not drawn) [Compound 42],34,37,36,better antitumor activity than Cyanosafracin B,17,< 10,17,< 10,11,18,13,21,30,22,< 10,49,42,18,
C#CCN1C/C=C/COc2c(C)c3c(c4c2C[C@H]2[C@H]5c6c(cc(C)c(OC)c6O)C[C@@H]([C@H](C#N)N2C4CNC(=O)[C@@H]1C)N5C)OCO3 [Compound 44],,,,better antitumor activity than Cyanosafracin B,,,,,,,,,,,,,,,"GI50 ([1]; HBC5, HBC-5 breast cancer cells, read-out: antitumor activity GI50 value: 50% growth inhibitory concentration): < 10 nM; GI50 ([2]; Homo sapiens, MCF7, MCF-7 breast cancer cells, read-out: antitumor activity GI50 value: 50% growth inhibitory concentration): < 10 nM; GI50 ([3]; Homo sapiens, SF-539 central nervous system cancer cells, read-out: antitumor activity GI50 value: 50% growth inhibitory concentration): < 10 nM; GI50 ([4]; Homo sapiens, SNB-75 central nervous system cancer cells, read-out: antitumor activity GI50 value: 50% growth inhibitory concentration): < 10 nM; GI50 ([5]; Homo sapiens, SNB-78 central nervous system cancer cells, read-out: antitumor activity GI50 value: 50% growth inhibitory concentration): < 10 nM; GI50 ([6]; Homo sapiens, HCC 2998, HCC2998 colorectal cancer cells, read-out: antitumor activity GI50 value: 50% growth inhibitory concentration): < 10 nM; GI50 ([7]; Homo sapiens, HT-29 colorectal cancer cells, read-out: antitumor activity GI50 value: 50% growth inhibitory concentration): < 10 nM; GI50 ([8]; Homo sapiens, HCT-116 colorectal cancer cells, read-out: antitumor activity GI50 value: 50% growth inhibitory concentration): < 10 nM; GI50 ([9]; Homo sapiens, NCI-H226, NCl-H226 lung cancer cells, read-out: antitumor activity GI50 value: 50% growth inhibitory concentration): < 10 nM; GI50 ([10]; Homo sapiens, NCI-H460, NCl--H460 lung cancer cells, read-out: antitumor activity GI50 value: 50% growth inhibitory concentration): < 10 nM; GI50 ([11]; Homo sapiens, LOX-IMVI melanoma cells, read-out: antitumor activity GI50 value: 50% growth inhibitory concentration): < 10 nM; GI50 ([12]; Homo sapiens, SK-OV-3 cervical cancer cells, read-out: antitumor activity GI50 value: 50% growth inhibitory concentration): < 10 nM; GI50 ([13]; RXF-631L kidney cancer cells, read-out: antitumor activity GI50 value: 50% growth inhibitory concentration): < 10 nM; GI50 ([14]; Homo sapiens, ACHN kidney cancer cells, read-out: antitumor activity GI50 value: 50% growth inhibitory concentration): < 10 nM; GI50 ([15]; SI-4 gastric cancer cells, read-out: antitumor activity GI50 value: 50% growth inhibitory concentration): < 10 nM; GI50 ([16]; Homo sapiens, MKN-1, MKN1 gastric cancer cells, read-out: antitumor activity GI50 value: 50% growth inhibitory concentration): < 10 nM; GI50 ([17]; MKN-A gastric cancer cells, read-out: antitumor activity GI50 value: 50% growth inhibitory concentration): < 10 nM"
COc1c(C)cc2c(c1O)C1C3Cc4c5c(C)c6c(c4C(CNC(=O)C(C)NC(=O)OCC4C=C(CO5)CC5C(=O)N(c7ccccc7)C(=O)C45)N3C(C#N)C(C2)N1C)OCO6 (stereo not drawn) [Compound 18],310,300,210,better antitumor activity than Cyanosafracin B,38,22,33,50,40,95,72,74,280,260,27,410,240,50,
